The test system of series [1] is panel of breast cancer cell lines. Nature of the series: Anti-proliferative assays, panel of BC cell lines (overall statements). The following applies: for potency as compared to Mps1-IN-1: in some or all of the cell based assays in the panel. Type of series: cell-based. As to the method:
This example describes the development of novel small molecule Mps1/TTK inhibitors as targeted therapies for TNBC and other aggressive BC using drug discovery technologies. Using computational modeling, medicinal chemistry, biochemistry and cell culture assays, the inventors have identified novel small molecules as potential Mps1/TTK inhibitors. The compounds were evaluated in anti-proliferative assays of a panel of 15 BC cell lines and further examined for their ability to inhibit a variety of Mps1-dependent biological functions.
(§1) The anti-proliferative effects and IC50 values of the compounds in the BC cell line panel were determined by MTS assay.
(§2) The cells, except Sk-Br-3, AU565 and BT-474 were maintained in a mixture of Dulbecco's modified Eagle's medium and Ham's F12 medium (1:1) (DMEM/F12) without phenol red supplemented with 5% fetal bovine serum (FBS) and 1× antibiotic-antimycotic (100 U/mL penicillin G sodium, 100 μg/mL streptomycin sulfate and 0.25 μg/mL amphotericin B) and were plated separately in flasks in a humidified incubator (5% CO2: 95% air, 37° C.). The media used for Sk-Br-3, AU565 and BT-474 cell lines was described in (1) Brueggemeier et al., J. Steroid Biochem. Mol. Biol., 2005; 95:129-136; and (2) Diaz-Cruz et al., J. Clin. Endocrinol. Metab., 2005; 90:2563-2570. The media were changed every 2-days. When the cells grew to about 80% confluence, cells were washed twice with calcium- and magnesium-free phosphate-buffered saline (PBS, pH 7.4), and then trypsinized with 0.05% trypsin-5.3 mm EDTA. The trypsinization was stopped by addition of culture medium with 5% FBS. After centrifugation, the dissociated cells were resuspended in the same medium and subcultured into 75-cm^2 culture flasks at a ratio of 1:5 flasks.
(§3) The BC cells were seeded at the density of 1,000 cells per well (100 μL) into 96 well plate in DMEM/F-12 (1:1), supplemented with 5% (v/v) FCS and incubated overnight at 37° C. Test compounds are solubilized in dimethyl sulfoxide (DMSO), diluted in cell culture medium to a range of final assay concentrations of 1 nM to 10 μM, added to cells and incubated for 7 days at 37° C. The medium including the test compound are refreshed at days 3 and 5. The MTS assay are carried out by using the CellTiter 96® AQueous One Solution Cell Proliferation Assay kit following the manufacturer's instruction.

For another series, the system named is Hs578T. Description: MTS anti-proliferative assay, Hs578T. The format is cell-based. The following applies: Homo sapiens, Hs-578T, 168 h, TNBC, basal B, treatment for 7 days. As to the method:
as §1, §2, §3
(Formazan colour is commonly taken as a measure of viable cells.)

The subject of the next series is T47D. Description: MTS anti-proliferative assay, T47D. The format is cell-based. The following applies: Homo sapiens, 168 h, luminal, treatment for 7 days. On the procedure: as §1, §2, §3
For the next series, the system named is Cal-51 cells. Nature of the series: Spindle checkpoint assay, Cal-51. Type of series: cell-based. The following applies: for abrogating the spindle checkpoint: Cal-51, at 1 μM. On the procedure:
For spindle checkpoint assays, S-phase arrested cells treated with candidate compounds were released into medium containing the spindle poison nocodazole. Because the spindle checkpoint prevents the metaphase to anaphase transition in the presence of spindle damage, compounds that block the spindle checkpoint will lead to a decreased number of mitotic cells in the presence of nocodazole. Briefly, cells were arrested in S-phase with a 24 hour treatment with 2 mM thymidine. Three hours after removing thymidine to release cells from S-phase arrest, nocodazole was added at 200 ng/mL. After 12 hours in the presence of nocodazole, cells were fixed and stained with mouse anti-cyclin B and Hoechst, and the percentage of cyclin B positive cells with condensed chromosomes was determined in triplicate samples.

For series [2], the system named is normal breast epithelial cells. Description: Primary cultures of normal breast epithelial cells. The following applies: up to 20 μM. The format is cell-based. On the procedure: No notable cytotoxicity was observed after 24 hours of treatment at concentrations as high as 10 μM.
A further series has as its system HCC1937. Nature of the series: MTS anti-proliferative assay, HCC1937. The format is cell-based. To be noted: Homo sapiens, 168 h, HCC1937, TNBC, basal, treatment for 7 days. On the procedure:
as §1, §2, §3

The target in series [3] is T1, Mps1/TTK kinase (recombinant GST-Mps1) (Homo sapiens, UniProt P33981).
T1 sequence (P33981 1-857): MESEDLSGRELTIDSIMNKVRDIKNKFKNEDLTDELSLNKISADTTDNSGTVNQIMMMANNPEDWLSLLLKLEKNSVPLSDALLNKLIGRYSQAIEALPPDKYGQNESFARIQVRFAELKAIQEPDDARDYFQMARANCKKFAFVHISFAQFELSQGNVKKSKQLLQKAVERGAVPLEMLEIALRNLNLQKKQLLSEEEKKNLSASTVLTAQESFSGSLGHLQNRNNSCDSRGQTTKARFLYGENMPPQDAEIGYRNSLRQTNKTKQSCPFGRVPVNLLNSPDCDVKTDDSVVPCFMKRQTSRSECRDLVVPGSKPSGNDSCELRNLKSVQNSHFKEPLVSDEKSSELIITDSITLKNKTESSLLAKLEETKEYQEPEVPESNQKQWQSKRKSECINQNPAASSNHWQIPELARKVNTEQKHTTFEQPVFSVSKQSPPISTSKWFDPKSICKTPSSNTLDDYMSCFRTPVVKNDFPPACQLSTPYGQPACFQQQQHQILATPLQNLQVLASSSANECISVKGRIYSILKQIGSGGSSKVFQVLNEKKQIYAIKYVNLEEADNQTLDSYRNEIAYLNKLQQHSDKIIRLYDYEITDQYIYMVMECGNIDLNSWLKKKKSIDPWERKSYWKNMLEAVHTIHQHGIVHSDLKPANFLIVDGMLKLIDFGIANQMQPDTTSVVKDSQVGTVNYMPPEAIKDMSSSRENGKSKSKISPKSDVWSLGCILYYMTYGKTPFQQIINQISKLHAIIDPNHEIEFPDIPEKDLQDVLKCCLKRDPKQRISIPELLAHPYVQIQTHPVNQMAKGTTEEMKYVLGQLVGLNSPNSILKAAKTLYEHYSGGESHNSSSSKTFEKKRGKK
Description: Mps1 in vitro kinase assay with Cetn2 substrate. Type of series: biochemical. To be noted: read-out: IC50, in vitro kinase activity of Mps1. On the procedure:
To determine the efficacy of the compounds against Mps1/TTK kinase activity, assays were performed as previously described (11) using recombinant Mps1, Cetn2 (specific substrate), and varying concentration of compound.

In a further series the test system is MCF-7. Description: MTS anti-proliferative assay, MCF-7. Type of series: cell-based. The following applies: Homo sapiens, MCF7, 168 h, MCF-7, luminal A, treatment for 7 days. As to the method:
as §1, §2, §3

A further series relates to MDA-MB-468. Description: MTS anti-proliferative assay, MDA-MB-468. To be noted: Homo sapiens, 168 h, MDA-MB-468, TNBC, basal B, treatment for 7 days. The format is cell-based. On the procedure: as §1, §2, §3
In another series the test system is AU565. Description: MTS anti-proliferative assay, AU565. The format is cell-based. The following applies: Homo sapiens, 168 h, AU565, luminal, treatment for 7 days. As to the method:
as §1, §2, §3

In the next series the test system is BT-20. Nature of the series: MTS anti-proliferative assay, BT-20. The format is cell-based. The following applies: Homo sapiens, 168 h, BT-20, TNBC, basal A, treatment for 7 days. As to the method:
as §1, §2, §3

Where [4] appears, read: additional investigations (text to Table 2).

Each structure is given as a SMILES string. Read-outs that look alike come from different tables or passages of the source.

A word on the IC50: it is the concentration needed to halve the response being measured. For the compound `COc1cc(N2CCC(O)CC2)ccc1Nc1nc(Nc2ccccc2S(=O)(=O)C(C)C)c2cc[nH]c2n1` [Compound 1, 1-(4-((4-((2-(isopropylsulfonyl)phenyl)amino)-7H-pyrrolo[2,3-d]pyrimidin-2-yl)amino)-3-methoxyphenyl)piperidin-4-ol], in series [1], the “potency as compared to Mps1-IN-1” value is given as “significantly more potent”. Further, the “anti-proliferative effect, selectivity toward TNBC cells” value in series [1] (preliminary studies of the initial series) is “moderate selectivity”. Further, the half-maximal inhibitory concentration (IC50) in the series on Hs578T was above 10000 nM; with T47D, above 10000 nM; in the series on HCC1937, 730 nM; in [3] (setting [4]), 809 nM; in series [3] (preliminary investigations) it was 155 nM; with MCF-7 it was 440 nM. Also, the IC50 in the series on MDA-MB-468 was 190 nM; with AU565, above 10000 nM; in the series on BT-20, 350 nM. Further, in the series on Cal-51 cells, the “abrogating the spindle checkpoint” value was “more effective than IN-1, AZ3146, or compound 5”. Also, the “ability of cells to arrest in response to nocodazole” value in the series on Cal-51 cells (Cal-51, nocodazole 200 ng/mL, 12 hours) is “dose-dependent reduction”. The “inhibition of normal breast epithelial cells” value in series [2] is reported as “no inhibition or incomplete dose-response curves”.

Regarding `COc1cc(N2CCOCC2)ccc1Nc1nc(NC2CCCCC2)c2cc[nH]c2n1` [Compound 13, N4-cyclohexyl-N2-(2-methoxy-4-morpholinophenyl)-7H-pyrrolo[2,3-d]pyrimidine-2,4-diamine], the “potency as compared to Mps1-IN-1” value in series [1] was “significantly more potent”. The IC50 with Hs578T was above 10000 nM; in the series on T47D it was above 10000 nM; with HCC1937, 1090 nM; in [3] (setting [4]), 356 nM; in series [3] (preliminary investigations) it was 30 nM; in the series on MCF-7, above 10000 nM. The IC50 in the series on MDA-MB-468 is 570 nM; in the series on AU565, 900 nM; in the series on BT-20 it was 570 nM. In addition, the “abrogating the spindle checkpoint” value in the series with Cal-51 cells was “most effective”. Further, the “inhibition of normal breast epithelial cells” value in [2] is recorded as “no inhibition or incomplete dose-response curves”.

Source of the values: patent US10611765B2, “Pyrrolopyrimidine derivatives as Mps1/TTK kinase inhibitors” (Ohio State Innovation Foundation, priority 2014, dated 2020).
